The subject of the test is P388 leukemia ip, CD2F1 mice, survival T/C. Put plainly: NCI In Vivo Anticancer Drug Screen. Data for tumor model P388 Leukemia (intraperitoneal) in CD2F1 (CDF1) mice. The settings on record: endpoint: median survival time, higher = longer survival. In a few lines: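 Mice carrying the transplanted tumor received test compound or vehicle. Survival was recorded in each group, and the value is the treated-group measurement divided by that of the vehicle-treated control group.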

Where [1] appears, read: dose: 100.0 mg/kg/injection, schedule: Q04DX002 (ip), vehicle: saline.
The mark [2] stands for this setting: dose: 200.0 mg/kg/injection, schedule: Q04DX002 (ip), vehicle: saline.
[3] abbreviates: dose: 50.0 mg/kg/injection, schedule: Q01DX009 (ip), vehicle: Klucel (hydroxypropylcellulose) (HPC).
[4] abbreviates: dose: 100.0 mg/kg/injection, schedule: Q01DX009 (ip), vehicle: Klucel (hydroxypropylcellulose) (HPC).
Setting [5] is: dose: 50.0 mg/kg/injection, schedule: Q01DX009 (ip), vehicle: saline with Tween-80.
[6] abbreviates: dose: 100.0 mg/kg/injection, schedule: Q01DX009 (ip), vehicle: saline with Tween-80.
Setting [7] is: dose: 200.0 mg/kg/injection, schedule: Q01DX009 (ip), vehicle: saline with Tween-80.
The mark [8] stands for this setting: dose: 50.0 mg/kg/injection, schedule: Q01DX005 (ip), vehicle: saline with Tween-80.
Where [9] appears, read: dose: 12.5 mg/kg/injection, schedule: Q01DX009 (ip), vehicle: saline.
The mark [10] stands for this setting: dose: 50.0 mg/kg/injection, schedule: Q01DX005 (ip), vehicle: Klucel (hydroxypropylcellulose) (HPC).
The mark [11] stands for this setting: dose: 100.0 mg/kg/injection, schedule: Q01DX005 (ip), vehicle: Klucel (hydroxypropylcellulose) (HPC).
[12] abbreviates: dose: 200.0 mg/kg/injection, schedule: Q01DX005 (ip), vehicle: Klucel (hydroxypropylcellulose) (HPC).
Where [13] appears, read: dose: 60.0 mg/kg/injection, schedule: Q01DX005 (ip), vehicle: saline with Tween-80.

Several values for one entry are separate records, joined by “and”; a condition that tells them apart may be missing. Equal entries are not always repeated. Inconclusive results and toxic doses are left out. Peptide text beside a SMILES is read from it.

As to `c1ccc2c(c1)ccc1c3ccccc3ncc21`, the T/C reads like this: (dose: 12.5 mg/kg/injection, schedule: Q04DX003 (ip), vehicle: distilled water + Tween-80) 107 % of control; (dose: 25.0 mg/kg/injection, schedule: Q04DX003 (ip), vehicle: distilled water + Tween-80) 96 % of control; (dose: 50.0 mg/kg/injection, schedule: Q04DX003 (ip), vehicle: distilled water + Tween-80) 98 % of control; (dose: 100.0 mg/kg/injection, schedule: Q04DX003 (ip), vehicle: distilled water + Tween-80) 102 % of control; (dose: 200.0 mg/kg/injection, schedule: Q04DX003 (ip), vehicle: distilled water + Tween-80) 102 % of control; (dose: 400.0 mg/kg/injection, schedule: Q04DX003 (ip), vehicle: distilled water + Tween-80) 98 % of control.
`C=Cc1c2[n-]c(c1C)/C=c1\[n-]/c(c(C)c1C=C)=C\c1[n-]c(c(CCC(=O)O)c1C)/C=c1\[n-]/c(c(C)c1CCC(=O)O)=C\2.[Pt+4]`: the T/C is 89 % of control (dose: 50.0 mg/kg/injection, schedule: Q04DX002 (ip), vehicle: saline); 100 % of control under setting [1]; 97 % of control under setting [2].
As to `C=C1C(=O)OC2/C=C(\C)CC/C=C(\C)C(OC(=O)C3(C)OC3C)C(O)C12` (stereo not given), the T/C by setting is: (dose: 12.5 mg/kg/injection, schedule: Q01DX009 (ip), vehicle: Klucel (hydroxypropylcellulose) (HPC)) 96 % of control; (dose: 25.0 mg/kg/injection, schedule: Q01DX009 (ip), vehicle: Klucel (hydroxypropylcellulose) (HPC)) 100 % of control; under setting [3], 115 % of control; under setting [4], 103 % of control.
For `CCSCCCCSCC`, the T/C is, setting by setting: under setting [5], 100 % of control; under setting [6], 109 % of control; under setting [7], 113 % of control.
With `COC(=O)C1C(NC(C)(C)C)CCN1C(C)=O` (stereo not given), the T/C (dose: 50.0 mg/kg/injection, schedule: Q01DX005 (ip), vehicle: saline) was 89 % of control; the T/C (dose: 100.0 mg/kg/injection, schedule: Q01DX005 (ip), vehicle: saline) was 88 % of control; the T/C (dose: 200.0 mg/kg/injection, schedule: Q01DX005 (ip), vehicle: saline) was 89 % of control.
Take `Cc1cc(N=Cc2cccs2)ccc1Br`: the T/C reads like this: under setting [3], 101 % of control and 98 % of control; under setting [4], 100 % of control and 101 % of control and 102 % of control; (dose: 200.0 mg/kg/injection, schedule: Q01DX009 (ip), vehicle: Klucel (hydroxypropylcellulose) (HPC)) 102 % of control and 95 % of control; (dose: 400.0 mg/kg/injection, schedule: Q01DX009 (ip), vehicle: Klucel (hydroxypropylcellulose) (HPC)) 105 % of control.
As for `CCOC(=O)C1=C(N)C2CC(C)=C(C)CN2C1` (stereo not given), the T/C was 98 % of control under setting [8] and 100 % of control (dose: 100.0 mg/kg/injection, schedule: Q01DX005 (ip), vehicle: saline with Tween-80).
For the molecule `CCOP(=O)(OCC)OC(C)CC1CO1` (stereo not given), the T/C by setting is: under setting [1], 100 % of control; under setting [2], 98 % of control; (dose: 400.0 mg/kg/injection, schedule: Q04DX002 (ip), vehicle: saline) 103 % of control.
For the molecule `CCC(=O)NC(CC(=O)O)c1cccs1` (stereo not given), the T/C was 102 % of control under setting [9]; 104 % of control (dose: 25.0 mg/kg/injection, schedule: Q01DX009 (ip), vehicle: saline); 107 % of control (dose: 50.0 mg/kg/injection, schedule: Q01DX009 (ip), vehicle: saline); 90 % of control (dose: 100.0 mg/kg/injection, schedule: Q01DX009 (ip), vehicle: saline); 93 % of control (dose: 200.0 mg/kg/injection, schedule: Q01DX009 (ip), vehicle: saline).
In the case of `Cc1ccc(C(=O)CC[N+](C)(C)C)cc1`, the T/C reads like this: (dose: 3.13 mg/kg/injection, schedule: Q01DX009 (ip), vehicle: saline) 109 % of control; (dose: 6.25 mg/kg/injection, schedule: Q01DX009 (ip), vehicle: saline) 113 % of control; under setting [9], 109 % of control.
On to `NC(=O)c1ccc(Cl)cc1C(N)=O`, for which the T/C runs as follows: under setting [10], 99 % of control; under setting [11], 105 % of control; under setting [12], 99 % of control.
Turning to `O=[N+]([O-])c1cccc2c(Nc3ccc(S(=O)(=O)Nc4nccs4)cc3)c3ccccc3nc12`, the T/C by setting is: (dose: 15.0 mg/kg/injection, schedule: Q01DX005 (ip), vehicle: saline with Tween-80) 95 % of control; (dose: 30.0 mg/kg/injection, schedule: Q01DX005 (ip), vehicle: saline with Tween-80) 100 % of control; under setting [13], 102 % of control and 97 % of control.
Consider `O=C1N[C@@H](Cc2ccccc2)C(=O)N2CSC[C@H]12`, for which the T/C (dose: 100.0 mg/kg/injection, schedule: Q01DX001 (ip), vehicle: Klucel (hydroxypropylcellulose) (HPC)) was 99 % of control; the T/C (dose: 200.0 mg/kg/injection, schedule: Q01DX001 (ip), vehicle: Klucel (hydroxypropylcellulose) (HPC)) is 102 % of control; the T/C (dose: 400.0 mg/kg/injection, schedule: Q01DX001 (ip), vehicle: Klucel (hydroxypropylcellulose) (HPC)) was 102 % of control.
For the molecule `NC(=S)N/N=C\C(=O)c1ccccc1O`, the T/C by setting is: (dose: 9.4 mg/kg/injection, schedule: Q01DX009 (ip), vehicle: saline with Tween-80) 100 % of control (2×) and 101 % of control; (dose: 18.75 mg/kg/injection, schedule: Q01DX009 (ip), vehicle: saline with Tween-80) 90 % of control and 95 % of control and 98 % of control; (dose: 75.0 mg/kg/injection, schedule: Q01DX009 (ip), vehicle: saline with Tween-80) 99 % of control and 105 % of control; (dose: 150.0 mg/kg/injection, schedule: Q01DX009 (ip), vehicle: saline with Tween-80) 103 % of control.
On to `COc1ccc(C(CCOS(=O)(=O)c2ccc(Br)cc2)(c2ccc(OC)cc2)c2ccc(OC)cc2)cc1`, for which the T/C under setting [13] is 93 % of control; the T/C (dose: 120.0 mg/kg/injection, schedule: Q01DX005 (ip), vehicle: saline with Tween-80) was 93 % of control; the T/C (dose: 240.0 mg/kg/injection, schedule: Q01DX005 (ip), vehicle: saline with Tween-80) was 87 % of control.
As for `COc1cc(C(=O)N/N=C/c2cccc([N+](=O)[O-])c2)cc(OC)c1OC`, the T/C by setting is: under setting [5], 102 % of control and 115 % of control; under setting [6], 123 % of control; under setting [7], 163 % of control; (dose: 400.0 mg/kg/injection, schedule: Q01DX009 (ip), vehicle: saline with Tween-80) 168 % of control.
As to `C(#CC12CC3CC(CC(C3)C1)C2)C12CC3CC(CC(C3)C1)C2`, the T/C runs as follows: under setting [10], 98 % of control; under setting [11], 92 % of control; under setting [12], 91 % of control.
For `CCC1C2Cc3ccc(O)cc3C1(C)CCN2C` (stereo not given), the T/C is 100 % of control (dose: 12.5 mg/kg/injection, schedule: Q01DX005 (ip), vehicle: Klucel (hydroxypropylcellulose) (HPC)); 99 % of control (dose: 25.0 mg/kg/injection, schedule: Q01DX005 (ip), vehicle: Klucel (hydroxypropylcellulose) (HPC)); 102 % of control and 107 % of control under setting [10].
For `O=C(O)c1cccc(C(=O)O)c1I`, the T/C is, setting by setting: (dose: 100.0 mg/kg/injection, schedule: Q01DX001 (ip), vehicle: other) 103 % of control; (dose: 200.0 mg/kg/injection, schedule: Q01DX001 (ip), vehicle: other) 96 % of control; (dose: 400.0 mg/kg/injection, schedule: Q01DX001 (ip), vehicle: other) 89 % of control.
As for `COC(=O)C(Cc1ccc(O)cc1)NC(=O)C(Cc1ccccc1)NC(C)=O` (stereo not drawn) (Ac-Phe-Tyr-OMe; configuration not given here), the T/C by setting is: under setting [10], 92 % of control; under setting [11], 97 % of control; under setting [12], 88 % of control.
`CC(CC(=O)c1ccccc1)=NCC(O)CN=C(C)CC(=O)c1ccccc1` (stereo not given): the T/C runs as follows: under setting [5], 96 % of control; under setting [6], 94 % of control; under setting [7], 93 % of control.
As for `COc1ccc(NC(Cc2ccccc2)=NC(C)(C)C)cc1`, the T/C under setting [5] is 98 % of control, the T/C under setting [6] was 89 % of control and the T/C under setting [7] is 94 % of control.
Consider `CCOC(=O)c1c(C)c(C(=O)OCC)n(CC)c1C=O`, for which the T/C was 96 % of control under setting [5], 98 % of control under setting [6] and 98 % of control under setting [7].
Turning to `COc1ccc(NC(=O)C2C(=O)N(c3ccc(OC)cc3)C(=O)/C2=N/NC(N)=S)cc1` (stereo not given), the T/C (dose: 12.5 mg/kg/injection, schedule: Q01DX005 (ip), vehicle: saline with Tween-80) was 101 % of control; the T/C (dose: 25.0 mg/kg/injection, schedule: Q01DX005 (ip), vehicle: saline with Tween-80) was 100 % of control; the T/C under setting [8] was 100 % of control and 90 % of control.

These data come from PubChem BioAssay AID330 (DTP/NCI, 2004).
